Target: reduced folate carrier 1 (Mus musculus)
Experiment: Affinity towards RFC (Reduced folate carrier) measured by the inhibition of [3H]MTX uptake

## C#CCN(Cc1cc2c(=O)[nH]c(C)nc2cc1C)c1ccc(C(=O)N[C@@H](CCC(=O)N[C@H](CCC(=O)O)C(=O)O)C(=O)O)cc1
  Ki: 200 µM

— BindingDB's records for doi:10.1021/jm991119p (The Institute of Cancer Research, 2000)
